Source: US8183364B2, “Substituted porphyrins” (Duke University, priority 2004, dated 2012)
Entries after “also recorded” stand apart in the source; their conditions may differ. Marks after values point to notes of the source that are not given here.

Legend:
[1] = Oxidative degradation in the presence of ascorbic acid under aerobic conditions; type: physicochemical; settings: pH 7.8 (0.05 M tris buffer)
Experimental: Under these conditions porphyrins underwent oxidative degradation. As previously observed (Batinic-Haberle et al, J. Chem. Soc., Dalton Trans., pgs. 2689-2696 (2002)), those porphyrins that are of more positive E1/2 are stabilized in +2 oxidation state and are less prone to oxidative damage. Accordingly, 27% and 24% of MnTE-2-PyP^5+ and MnTMOE-2-PyP^5+ undergo degradation within 2 hours, but only 2% of MnTM,MOE-2-ImP^5+ and MnTDMOE-2-ImP^5+ and 3% of MnTDE-2-ImP^5+.

[2] = Kinetic salt effect on O2.^− dismutation by cytochrome c assay; type: biochemical; settings: 0.05 M phosphate buffer, pH 7.8, 0-0.4 M NaCl
Experimental: Kinetic salt effect. The dependence of the catalytic rate constant for the O2.^− dismutation upon ionic strength was determined by cytochrome c assay (McCord and Fridovich, J. Biol. Chem. 244:6049 (1969)) in 0.05 M phosphate buffer, pH 7.8 with NaCl ranging from 0 to 0.4 M. In doing this, the effect of ionic strength on the rate of the O2.^−/cytochrome c reaction was corrected for.
Kinetic salt effect. The effect of the ionic strength (μ) on the catalytic rate constant was assessed using eq which is based on Debye-Huckel relation (Hambright et al, J. Porphyrins Phthalocyanines 7:139-146 (2003)) for the effect of the ionic strength of the solution on the activity coefficient of an ion. log k=log kref+2AzAzBμ^1/2/(1+μ^1/2) The k is the rate constant at any given ionic strength, while kref is the rate constant at μ=0. The A is a collection of physical constants with a value of 0.509 and zA and zB are the charges of the reacting species. The equation predicts a linear plot of log k vs μ^1/2/(1+μ^1/2). Eq assumes a coefficient of 1.0 (βai) for μ^1/2 in the denominator, i.e., the distance of the closest approach, ai to be 3 A and β is a physical constant, […]. It is doubtful whether great significance can be attributed to the ai, thus to the product zAzB (Hambright et al, J. Porphyrins Phthalocyanines 7:139-146 (2003)), especially so in the light of the bulkiness, high charge and solvation shell of the metalloporphyrins. Accounting for the mono- and diprotonated phosphates as the major species at pH 7.8 (pKa=7.2), and the concentration of the NaCl, the ionic strength was calculated using equation μ=½ Σ mizi^2 where mi is the molality and zi the charge of the given ion.
The slopes of the plots are −6.48 (MnTE-2-PyP^5+), −7.02 (MnTMOE-2-PyP^5+), −7.38 (MnTDMOE-2-ImP^5+), and −4.15 (MnTnBu-2-PyP^5+). As expected (Hambright et al, J. Porphyrins Phthalocyanines 7:139-146 (2003)), when the reactants are ions of opposite charges, the higher the ionic strength of the solution the lower the rate constants, i.e. the slopes are negative. The slopes of the plots indicate clearly the impact of the local dielectric constant on the kcat. The kcat of the most lipophilic compound, MnTnBu-2-PyP^5+ is 40% less sensitive to the changes in ionic strength of the solution than is the kcat of its methoxyethyl analogue, MnTMOE-2-PyP^5+.

[3] = tested on: SOD-deficient JI132 E. coli; experiment: Aerobic growth of SOD-deficient E. coli; type: cell-based
Experimental: (§1) Aerobic growth of E. coli. Bacterial strains of E. coli used were wild type AB1157 (F-thr-1 leu-1 proA2 his-4 argE3 thr-1 lacY1 galK2 rpsL supE44 ara-14 xyl-15 mtl-1 tsx-33) and SOD-deficient JI132 (same as AB1157 plus (sodA::mudPR13)25 (sodB-kan)1-Δ2. Culture media were prepared as follows. M9 medium: 6 g/L Na2HPO4, 3 g/L KH2PO4, 0.5 g/L NaCl, 1 g/L NH4Cl, 2 mM MgSO4, 0.1 mM CaCl2, adjusted to pH 7.4 with NaOH, and supplemented with 0.2% glucose, 3 mg/L each of D-panthotenic acid and thiamine. M9CA medium contained M9 medium plus 0.2% casamino acids. 5-amino acid (5AA) minimal medium contained M9 medium plus 0.5 mM each of threonine, leucine, histidine, proline and arginine (Faulkner et al, J. Biocl. Chem. 269:23471 (1994)).
(§2) AB 1157 and 31132 were precultured overnight aerobically in M9CA medium at 37° C. and were then diluted to 3×10^7 cells/mL into 5 mL M9CA medium. JI132 was precultured in the presence of 20 μg/mL chloramphenicol and 500 μg/mL kanamycin. When the cells are transferred from M9CA medium to 5AA minimal medium cultures were first centrifuged and washed twice with the 5AA medium before final dilution in it. The centrifugation was conducted at room temperature to avoid temperature shocks. Cultures without and with Mn porphyrins (0.1 to 30 μM) were grown aerobically in 5 mL volume in test tubes in a thermostated orbital shaker (45° angle, 200 rpm) at 37° C.). Rates of growth were followed turbidimetrically at 700 nm to minimize interference from the absorbance of test compounds.

[4] = cited from earlier work; for Metal-centered redox potential E1/2: Mn(III)/Mn(II), 0.1 M NaCl, 0.05 M phosphate buffer, pH 7.8, data from Batinic-Haberle et al 2002
[5] = pH 7.8, (22 ± 1) °C; data from Batinic-Haberle et al 2002 (MnTE-2-PyP: Inorg. Chem. 40:726 (2001)); cited from earlier work
[6] = data from Batinic-Haberle et al 2002, cited from earlier work; for Rf (compound path/solvent path), metal-free porphyrin (in parenthesis): metal-free ligand of the named Mn porphyrin; for Rf (compound path/solvent path), Mn complex: silica gel TLC, KNO3-saturated H2O/H2O/acetonitrile = 1/1/8
[7] = Thin-layer chromatography on silica gel (retention factor Rf, lipophilicity); type: physicochemical; settings: Rf; vs methyl porphyrin
Experimental: Uv/vis spectra of porphyrin ligands and their Mn complexes were taken on a Shimadzu UV-2501-PC spectrophotometer at 25° C. Thin-layer chromatography of ligands and Mn complexes was done using silica gel plates with KNO3satH2O/H2O/acetonitrile=1/1/8.
Thin-layer chromatography. All new methoxyporphyrins are more lipophilic than MnTE-2-PyP^5+ and MnTDE-2-ImP^5+.

wild type AB1157 E. coli = experiment: Aerobic growth of wild type E. coli (toxicity); type: cell-based; settings: for toxicity to E. coli at 100-fold lower concentration: 0.3 μM; for growth of wild type E. coli: 5AA minimal medium; for toxicity to wild type E. coli / concentration at which toxicity on the parental (wild type) strain is exerted / becomes observable: M9CA medium; for toxicity to wild type E. coli: 30 μM (up to 30 μM); for concentration at which toxicity on the parental (wild type) strain is exerted / becomes observable: range 0.1 to 30 μM
Experimental: as §1, §2

[8] = previously observed (Batinic-Haberle et al 2002), compared with imidazolyl porphyrins; cited from earlier work
[9] = pH 7.8; cited from earlier work

For CC[n+]1ccccc1-c1c2nc(c(-c3cccc[n+]3CC)c3ccc([n-]3)c(-c3cccc[n+]3CC)c3nc(c(-c4cccc[n+]4CC)c4ccc1[n-]4)C=C3)C=C2.[Mn+3] [MnTE-2-PyP^5+], the “degradation within 2 hours” value [1] was 27%, the “slope of log kcat vs μ^1/2/(1+μ^1/2)” value [2] was −6.48 and the “aerobic growth of SOD-deficient E. coli” value ([3]; 5AA minimal medium, 25 μM) was “most effective”. The “protection of SOD-deficient E. coli” value ([3]; M9CA medium, 1 μM) was “low protection”, the “protection of SOD-deficient E. coli” value ([3]; M9CA medium, 30 μM) was “either much higher or near full protection” and the “facilitation of aerobic growth of SOD-deficient E. coli, dependence on concentration” value ([3]; M9CA medium, 1-30 μM) was “concentration-dependent manner”. For the same compound, the “Metal-centered redox potential E1/2” value [4] was “+228 mV vs NHE”, the “log kcat for O2^− dismutation” value [5] was 7.73^e and the “Rf (compound path/solvent path), metal-free porphyrin (in parenthesis)” value [6] was 0.21. The “Rf (compound path/solvent path), Mn complex” value [6] was 0.13.

In the case of CCCCCCCC[n+]1ccccc1-c1c2nc(c(-c3cccc[n+]3CCCCCCCC)c3ccc([n-]3)c(-c3cccc[n+]3CCCCCCCC)c3nc(c(-c4cccc[n+]4CCCCCCCC)c4ccc1[n-]4)C=C3)C=C2.[Mn+3] [MnTnOct-2-PyP^5+], the “lipophilicity higher than methyl porphyrin” value [7] is reported as roughly 10 fold, the “protection of SOD-deficient E. coli at 0.3 μM compared with 10 μM methyl, ethyl (and MnTDMOE-2-ImP) porphyrins” value ([3]; M9CA medium, listed as n-octyl) is reported as “equally protective; also recorded: the same level of protection” and the “concentration at which the compound facilitates growth of SOD-deficient strain (utility)” value ([3]; M9CA medium, range 0.1 to 30 μM) is reported as no more than 0.3 µM. For the same compound, the “protection of SOD-deficient E. coli higher than methyl porphyrin” value ([3]; vs methyl porphyrin) was 30 fold, the “toxicity to E. coli at 100-fold lower concentration” value (wild type AB1157 E. coli) was “mostly eliminated” and the “growth of wild type E. coli” value (wild type AB1157 E. coli; 3 μM) was “completely inhibited growth”. For the same compound, the “growth of wild type E. coli” value (wild type AB1157 E. coli; up to 25 μM) was “toxic”, the “toxicity to wild type E. coli” value (wild type AB1157 E. coli; listed as n-octyl) was “prevented wild type E. coli to grow; also recorded: prevent wild type E. coli from growing” and the “concentration at which toxicity on the parental (wild type) strain is exerted / becomes observable” value (wild type AB1157 E. coli) was 300 nM. For the same compound, the “toxicity of metal-free vs Mn(III) complex” value (wild type AB1157 E. coli; separate experiment) was “equally toxic”, the “Metal-centered redox potential E1/2” value [4] was “+367 mV vs NHE” and the “log kcat for O2^− dismutation” value [5] was 7.71. The “Rf (compound path/solvent path), metal-free porphyrin (in parenthesis)” value [6] was 0.86, the “Rf (compound path/solvent path), Mn complex” value [6] was 0.08 and the “stability towards oxidative degradation” value [8] was “same level of stability”.

With CCCCCC[n+]1ccccc1-c1c2nc(c(-c3cccc[n+]3CCCCCC)c3ccc([n-]3)c(-c3cccc[n+]3CCCCCC)c3nc(c(-c4cccc[n+]4CCCCCC)c4ccc1[n-]4)C=C3)C=C2.[Mn+3] [MnTnHex-2-PyP^5+] the “aerobic growth of SOD-deficient E. coli” value ([3]; 5AA minimal medium, 3 μM) was “most effective”, the “aerobic growth of SOD-deficient E. coli” value ([3]; 5AA minimal medium, 25 μM) was “failed to do so” and the “protection of SOD-deficient E. coli at 0.3 μM compared with 10 μM methyl, ethyl (and MnTDMOE-2-ImP) porphyrins” value ([3]; M9CA medium, listed as n-hexyl) was “equally protective; also recorded: the same level of protection”. For the same compound, the “aerobic growth of SOD-deficient E. coli” value ([3]; M9CA medium, 1 and 3 μM) was “most effective”, the “aerobic growth of SOD-deficient E. coli” value ([3]; M9CA medium, 10 and 30 μM) was “progressively less effective” and the “toxicity to E. coli at 100-fold lower concentration” value (wild type AB1157 E. coli) was “mostly eliminated”. For the same compound, the “growth of wild type E. coli” value (wild type AB1157 E. coli; 3 μM) was “slowed the growth”, the “growth of wild type E. coli” value (wild type AB1157 E. coli; up to 25 μM) was “toxic” and the “toxicity to wild type E. coli” value (wild type AB1157 E. coli; listed as n-hexyl) was “prevented wild type E. coli to grow; also recorded: prevent wild type E. coli from growing”. For the same compound, the “concentration at which toxicity on the parental (wild type) strain is exerted / becomes observable” value (wild type AB1157 E. coli) was 3000 nM, the “Metal-centered redox potential E1/2” value [4] was “+314 mV vs NHE” and the “log kcat for O2^− dismutation” value [5] was 7.48. The “Rf (compound path/solvent path), metal-free porphyrin (in parenthesis)” value [6] was 0.63, the “Rf (compound path/solvent path), Mn complex” value [6] was 0.57 and the “stability towards oxidative degradation” value [8] was “same level of stability”.

In the case of Cu,Zn-SOD: superoxide dismutase enzyme, the E1/2 ([4]; literature value for the enzyme) is listed as “~+300 mV vs NHE” and the “equal rate constants of reduction and oxidation of O2.^−” value [9] is listed as 2e+09 M⁻¹ s⁻¹.
